{"source": "patent US20100137344A1", "about": "“INDUCTION OF ANALGESIA IN NEUROPATHIC PAIN” (University Court of the University of Edinburgh, priority 2006, published 2010)", "key": {"[1]": {"system": "rats with Complete Freund's Adjuvant (CFA)-induced inflammation", "test": "Intrathecal icilin in CFA inflammatory pain model (PWL, PWT)", "format": "in vivo, rat", "settings": "icilin 10 nmol, i.t.", "method": "(§1) Pain models were generated under halothane anaesthesia (Zeneca, Cheshire, UK). For the chronic constriction injury (CCI) model of neuropathic pain, four ligatures were tied loosely to constrict the sciatic nerve at mid-thigh level (as described previously^[39]). An inflammatory pain model was generated by injecting 100 μl of Complete Freund's Adjuvant (CFA, Sigma-Aldrich Ltd) into the ventral surface of the right hindpaw^[39]. A model of peripheral demyelination-induced pain was produced by focal application of lysolecithin to the sciatic nerve^[40]. Peak behavioural sensitisation was observed post-surgically between days 10-16 for CCI, 1-3 for CFA, and 7-14 for lysolecithin, when pharmacological and electrophysiological experiments and tissue removal were conducted.\n(§2) Thermal sensitivity was assessed by measuring paw withdrawal latency (PWL, s) in response to a noxious thermal stimulus (Hargreaves' thermal stimulator, Linton Instrumentation, Diss, UK) directed to the hindpaw mid-plantar glabrous surface. Mechanical sensitivity was recorded as the paw withdrawal threshold (PWT, mN/mm^2) to calibrated von Frey filaments (Stoelting, Ill., US), as previously described^[39]. Sensitivity to noxious cold was assessed by placing animals in a waterbath with an aluminium floor containing 1 cm deep 4° C. water and counting the time the paw was held suspended over a 20 s period.\n(§3) The following drugs were applied intrathecally in a 50 μl volume of saline-based vehicle at 37° C.: icilin (2.5-200 μM in saline with 0.2% dimethylformamide, DMF), LY 341495 (100 μM in saline), UBP 1112 (200 μM in saline), 2R,4R-APDC ((2R, 4R)-4-aminopyrrolidine-2,4-dicarboxylate), 300 μM in saline), ACPT-III ((1R,3R,4S)-1-aminocyclopentane-1,3,4-tricarboxylic acid), 3 mM in saline), AP-4, ((L-(1)-2-amino-4-phosphonobutyric acid), 3 mM in saline), naloxone (0.5 mM in saline), NMDA (75 μM in saline) and ACPC (1-aminocyclopropanecarboxylic acid, 15 μM in saline) (Tocris Cookson, Bristol, UK), (−)-menthol (1R,2S,5R-(−)-menthol, 4 mM in saline), cinnamaldehyde (1.5 mM in saline) and Ruthenium Red (5 μM in saline) (Sigma-Aldrich Co. Ltd, UK) and allicin (0.5 mM in saline with 0.5% DMF) and diallyl disulphide (DADS, 1 mM in saline with 0.5% DMF) (LKT Laboratories Inc., St Paul, Minn., USA). […] Behavioural reflex testing commenced 15 min following injection to allow recovery from anaesthesia^[40,41,42] and continued every 5 min thereafter until readings returned to baseline levels (n=6 in each case). […]\n(§4) The TRPM8 channel activators, icilin and (−)-menthol were tested in CCI and naïve animals. The effects of icilin were additionally assessed in animals with CFA-induced inflammation or with lysolecithin-induced demyelination. […]"}, "[2]": {"system": "rats with lysolecithin-induced demyelination of sciatic nerve", "test": "Intrathecal icilin in lysolecithin demyelination-induced pain model (PWL, PWT)", "format": "in vivo, rat", "settings": "icilin 10 nmol, i.t.", "method": "as §1, §2, §3, §4"}, "[3]": {"system": "rats sensitised by the TRPA1 activator cinnamaldehyde", "test": "Cinnamaldehyde-induced sensitisation and its reversal by icilin (PWL, PWT)", "format": "in vivo, rat", "settings": "for Mean % reversal of mechanical sensitisation (after 15-30 mins) / Mean % reversal of thermal sensitisation (after 15-30 mins) / PWL (s) difference from control (+ icilin) / PWT (mN/mm^2) difference from control (+ icilin): icilin 10 nmol, i.t.", "method": "as §2\nThe following drugs were applied intrathecally in a 50 μl volume of saline-based vehicle at 37° C.: icilin (2.5-200 μM in saline with 0.2% dimethylformamide, DMF), LY 341495 (100 μM in saline), UBP 1112 (200 μM in saline), 2R,4R-APDC ((2R, 4R)-4-aminopyrrolidine-2,4-dicarboxylate), 300 μM in saline), ACPT-III ((1R,3R,4S)-1-aminocyclopentane-1,3,4-tricarboxylic acid), 3 mM in saline), AP-4, ((L-(1)-2-amino-4-phosphonobutyric acid), 3 mM in saline), naloxone (0.5 mM in saline), NMDA (75 μM in saline) and ACPC (1-aminocyclopropanecarboxylic acid, 15 μM in saline) (Tocris Cookson, Bristol, UK), (−)-menthol (1R,2S,5R-(−)-menthol, 4 mM in saline), cinnamaldehyde (1.5 mM in saline) and Ruthenium Red (5 μM in saline) (Sigma-Aldrich Co. Ltd, UK) and allicin (0.5 mM in saline with 0.5% DMF) and diallyl disulphide (DADS, 1 mM in saline with 0.5% DMF) (LKT Laboratories Inc., St Paul, Minn., USA). Drugs were injected into the L5/6 intrathecal space under brief halothane anaesthesia, using a 25-gauge needle microsyringe (BD Biosciences, Oxford, UK), as described previously^[39] in animals that were at peak levels of behavioural sensitisation. Behavioural reflex testing commenced 15 min following injection to allow recovery from anaesthesia^[40,41,42] and continued every 5 min thereafter until readings returned to baseline levels (n=6 in each case). We, and others^[40,41,42] find complete recovery from anaesthetic by 15 minutes. All appropriate controls were carried out to eliminate the possibility of effects due to vehicle or to injection procedure.\nThe TRPM8 channel activators, icilin and (−)-menthol were tested in CCI and naïve animals. The effects of icilin were additionally assessed in animals with CFA-induced inflammation or with lysolecithin-induced demyelination. Icilin was also co-administered with the μ-opioid receptor antagonist naloxone, the Group II metabotropic glutamate receptor (mGluR) antagonist, LY 341495, or the Group III mGluR antagonist, UBP 1112. The effects of these antagonists alone as well as effects of the Group II mGluR agonist, 2R,4R-APDC and the Group III mGluR agonists, ACPT-III and AP-4, were assessed in CCI animals. The TRPA1 channel activator, cinnamaldehyde, alone and with icilin, was tested in CCI animals and in naïve animals. Further TRPA1 channel activators, allicin and diallyl disulphide were assessed in naïve animals. Both icilin and cinnamaldehyde effects in CCI animals were also investigated in the additional presence of Ruthenium Red.\nIcilin was applied at concentrations of 2.5-500 μM (in water with 0.2% DMF), by placing CCI or naïve rats unrestrained for 5 min in a 1 cm deep waterbath (sufficient to cover paws), which was thermostatically controlled to a temperature of 30° C., or by very lightly anaesthetising rats and immersing hindpaws in small tubes containing 5 ml icilin (500 μM-5 mM, with a vehicle of 45% dimethylformamide in 0.2% aqueous Tween 80) for 5 min, followed by sensory testing for 60-80 mins. The effects of (−)-menthol and its stereoisomers isomenthol (1S,2R,5R-menthol,) and (+)-menthol (1S,2R,5S(+)-menthol) (4-16 mM in 80% ethanol) were also assessed. Relevant vehicles were always assessed in similar experiments. As a contrast, the effect of cinnamaldehyde (1.5 mM in water) and the effect of cinnamaldehyde with additional icilin (80 μM in water with 0.2% DMF) were assessed in naïve animals. […]"}, "[4]": {"system": "CCI model of neuropathic pain", "test": "Cold allodynia in CCI model, Peltier controlled footplate", "format": "in vivo, rat", "settings": "icilin 200 μM topical", "method": "In the CCI model of neuropathic pain, cold allodynia was assessed by scoring the number of paw flick-associated paw withdrawals from a Peltier controlled footplate that was reduced in temperature from control (30° C.) to mild cooling (20° C.). Icilin (200 μM) was applied topically (as in FIG. 1). Values are shown as means±SEM, ipsilateral (⋄) to nerve injury. † Indicates statistically significant reversal of cool allodynia."}, "[5]": {"system": "model of cancer-induced bone pain", "test": "Cancer-induced bone pain model (von Frey, rotarod paw lifts)", "format": "in vivo", "settings": "topical icilin", "text": "The model of cancer-induced bone pain was set up according to Medhurst et al., 2002 Pain 96: 129-40."}}}
{"smiles": "O=C1NC(c2cccc([N+](=O)[O-])c2)=CCN1c1ccccc1O", "note": "[icilin, 1-(2′-hydroxyphenyl)-4-(3″-nitrophenyl)-1,2,3,6-tetrahydropyrimidin-2-one]", "values": [{"measurement": "Mean % reversal of mechanical sensitisation (after 15-30 mins)", "setting": "[1]", "value": "42.6 ± 2.8", "unit": "%"}, {"measurement": "Mean % reversal of thermal sensitisation (after 15-30 mins)", "setting": "[1]", "value": "66.0 ± 7.5", "unit": "%"}, {"measurement": "PWL (s) difference from control (+ icilin)", "setting": "[1]", "value": "1.6 ± 1.6", "unit": "s"}, {"measurement": "PWT (mN/mm^2) difference from control (+ icilin)", "setting": "[1]", "value": "1707.6 ± 149.9", "unit": "mN/mm^2"}, {"measurement": "Mean % reversal of mechanical sensitisation (after 15-30 mins)", "setting": "[2]", "value": "63.3 ± 6.4", "unit": "%"}, {"measurement": "Mean % reversal of thermal sensitisation (after 15-30 mins)", "setting": "[2]", "value": "69.2 ± 5.1", "unit": "%"}, {"measurement": "PWL (s) difference from control (+ icilin)", "setting": "[2]", "value": "2.4 ± 1.2", "unit": "s"}, {"measurement": "PWT (mN/mm^2) difference from control (+ icilin)", "setting": "[2]", "value": "1102.5 ± 422.5", "unit": "mN/mm^2"}, {"measurement": "Mean % reversal of mechanical sensitisation (after 15-30 mins)", "setting": "[3]; Cinnamaldehyde (intrathecal)", "value": "92.6 ± 2.8", "unit": "%"}, {"measurement": "Mean % reversal of thermal sensitisation (after 15-30 mins)", "setting": "[3]; Cinnamaldehyde (intrathecal)", "value": "91.5 ± 4.1", "unit": "%"}, {"measurement": "PWL (s) difference from control (+ icilin)", "setting": "[3]; Cinnamaldehyde (intrathecal)", "value": "0.5 ± 1.8", "unit": "s"}, {"measurement": "PWT (mN/mm^2) difference from control (+ icilin)", "setting": "[3]; Cinnamaldehyde (intrathecal)", "value": "150.3 ± 125.2", "unit": "mN/mm^2"}, {"measurement": "Mean % reversal of mechanical sensitisation (after 15-30 mins)", "setting": "[3]; Cinnamaldehyde (topical)", "value": "100.0 ± 0.0", "unit": "%"}, {"measurement": "Mean % reversal of thermal sensitisation (after 15-30 mins)", "setting": "[3]; Cinnamaldehyde (topical)", "value": "92.0 ± 6.1", "unit": "%"}, {"measurement": "PWL (s) difference from control (+ icilin)", "setting": "[3]; Cinnamaldehyde (topical)", "value": "0.4 ± 1.6", "unit": "s"}, {"measurement": "PWT (mN/mm^2) difference from control (+ icilin)", "setting": "[3]; Cinnamaldehyde (topical)", "value": "0.0 ± 0.0", "unit": "mN/mm^2"}, {"measurement": "effect on sensitisation by topical cinnamaldehyde", "setting": "[3]; topical icilin 200 μM, data not shown", "value": "reversed"}, {"measurement": "analgesia against cold allodynia (paw withdrawals, footplate 30° C. to 20° C.)", "setting": "[4]", "value": "provides analgesia against the cold allodynia"}, {"measurement": "analgesia in cancer-induced bone pain (mechanical allodynia, movement-evoked pain)", "setting": "[5]", "value": "causes analgesia"}]}
